Measurements: patent publication US20060258561A1, “Novel NPH insulin preparations” (Novo Nordisk A/S, priority 2003, published 2006)
Read-outs that look alike come from different tables or passages of the source.

What was measured:
[1] = target: T1, R-state His^B10 Zn^2+ site of insulin R6 hexamers (Homo sapiens, UniProt P01308); experiment: TZD-assay: fluorescence displacement of 5-(4-dimethylaminobenzylidene)thiazolidine-2,4-dione from insulin R6 hexamers; assay type: binding
T1 construct: human insulin comprising additional amino acids, i.e. more than 51 amino acids
Protocol: However, ligands with substantially higher affinity for the His^B10 Zn^2+-site may be found and characterized by using a fluorescence based competition assay which is based on the displacement of 5-(4-dimethylaminobenzylidene)-thiazolidine-2,4-dione from the R-state His^B10 Zn^2+-site by the incoming ligand in question.
TZD-Assay for Quantitation of Ligands Binding to the R-State His^B10 Zn^2+:
The binding affinity of ligands to the metal site of insulin R6 hexamers are measured in a fluorescense based displacement assay. The fluorescence of 5-(4-dimethylaminobenzylidene)thiazolidine-2,4-dione (TZD) which is a ligand for the metal site of insulin R6 is quenched upon displacement from the metal site to the solution. Titration of a ligand to a stock solution of insulin R6 hexamers with this compound mounted in the metal site allows the binding affinity of these ligands to be determined measuring the fluorescence at 455 nm upon excitation at 410 nm.
Stock solution: 0.02 mM human insulin, 0.007 mM Zn-acetate, 40 mM phenol, 0.01 mM TZD in 50 mM tris buffer adjusted to pH=8.0 with NaOH/ClO4^−.
The ligand is dissolved in DMSO to a concentration of 5 mM and added in aliquots to the stock solution to final concentrations of 0-250 μM.
Fluorescence measurements were carried out on a Perkin Elmer Spectrofluorometer LS50B. The main absorption band was excited at 410 nm and emission was detected at 455 nm. The resolution was 10 nm and 2.5 nm for excitation and emission, respectively.
This equation is fitted to the datapoints ΔF(455 nm))=ΔFmax*[ligand]free/(KD(app)*(1+[TZD]/KTZD)+[ligand]free)) KD(app) is the apparent dissociation constant and Fmax is the fluorescence at maximal ligand concentration. The value of KTZD is measured separately to 230 nM
Two different fitting-procedures can be used. One in which both parameters, KD(app) and Fmax, are adjusted to best fit the data and a second in which the value of Fmax is fixed (Fmax=1) and only KD(app) is adjusted. The given data are from the second fitting procedure. The Solver module of Microsoft Excel can be used to generate the fits from the datapoints.

[2] = NPH-insulin crystallisation in the presence of ligand (co-crystallisation); assay type: physicochemical; conditions: human insulin NPH crystals grown overnight with ligand equimolar to Zn2+, pH 7.3
Protocol: Preparation of NPH-insulin in the presence of ligands for the His^B10 Zn^2+-site of the R-state insulin hexamer.
Preparations are prepared by mixing equal volumes of the following two solutions: a) 1.2 mM human insulin, 0.46 mM Zn^2+, 28 mM phosphate, 1.6% glycerol, 0.15% m-cresol, 0.065% phenol, and 0.46 mM ligand for the HisB10 Zn^2+-site (see below), optionally the ligand was added as a 9.2 mM DMSO solution, pH 7.5; and b) 0.636 mg/mL protamine sulphate 1.6% glycerol, 0.15% m-cresol, 0.065% phenol, pH 6. The NPH-crystals grow overnight from the resulting suspension, pH 7.3.

[3] = target: T2, metal site of insulin R6 hexamers (Homo sapiens, UniProt P01308); conditions: taken from Huang et al., 1997, Biochemistry 36, 9878-9888; read-out: K4H3N; cited from earlier work
T2 construct: human insulin comprising additional amino acids, i.e. more than 51 amino acids

[4] = human insulin R6 hexamers, 40 mM phenol, tris pH 8.0, apparent KD, fit with Fmax fixed, read-out: Kd as observed in the 5-(4-imethylaminobenzylidene)-thiazolidine-2,4-dione assay

T1 sequence (P01308 25-54 limits assumed): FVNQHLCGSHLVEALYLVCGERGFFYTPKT
T1 sequence (P01308 90-110 limits assumed): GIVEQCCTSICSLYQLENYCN
T2 sequence (P01308 25-54 limits assumed): as the sequence (P01308 25-54 limits assumed) above

SMILES | Kd [1, 4] | NPH-insulin crystal size [2] | melting point | also measured
c1ccc(-c2ccc(Cn3ccc4cc(-c5nnn[nH]5)ccc43)cc2)cc1 [1-(4-Phenylbenzyl)-5-(1H-tetrazol-5-yl)-1H-indole] | 0.038 µM | <2 μ |  | 
O=C(O)c1ccc(Cn2c3ccccc3c3cc(-c4nnn[nH]4)ccc32)cc1 [4-[3-(1H-Tetrazol-5-yl)-carbazol-9-ylmethyl]-benzoic acid] | 0.174 µM | <2 μ |  | 
Cc1cc(/C=C2\SC(=O)NC2=O)c(C)c2c1[nH]c1ccccc12 [5-(1,4-Dimethyl-9H-carbazol-3-ylmethylene)-thiazolidine-2,4-dione] | < 0.01 µM | <2 μ |  | 
Cc1[nH]c2ccccc2c1/C=C1\SC(=O)NC1=O [5-(2-methyl-1H-indol-3-ylmethylene) thiazolidine-2,4-dione] | < 0.01 µM | 2-6 μ |  | 
O=C1NC(=O)C(Cc2cccc3ccccc23)S1 (centres unmarked) [5-Napthalen-1-ylmethyl-thiazolidine-2,4-dione] | 0.099 µM | 2 μ |  | 
O=C1NC(=O)/C(=C/c2cccc3ccccc23)S1 [5-Napthalen-1-ylmethylene-thiazolidine-2,4-dione] | 0.021 µM | 4-10 μ |  | 
O=C(O)c1cc2cc(Br)ccc2cc1O [7-Bromo-3-hydroxy-2-napthoic acid] | 0.264 µM | 5-20 μ |  | 
c1ccc(Cn2c3ccccc3c3cc(-c4nnn[nH]4)ccc32)cc1 [9-Benzyl-3-(1H-tetrazol-5-yl)-9H-carbazole] | 0.068 µM | 1-3 μ |  | 
O=C(O)c1ccc(O)c([N+](=O)[O-])c1 [Example 4H3N, 4-hydroxy-3-nitrobenzoic acid] |  |  |  | Kd [3]: 50 µM
COc1cc(/C=C2\SC(=O)NC2=O)cc(I)c1O [Example 167, 5-(4-Hydroxy-3-iodo-5-methoxybenzylidene)thiazolidine-2,4-dione] |  |  | 256 °C | 
O=C1NC(=O)/C(=C/c2ccc3cc(O)ccc3c2)S1 [Example 171, 5-(6-Hydroxy-2-naphthylmethylene) thiazolidine-2,4-dione] |  |  | 310 to 314 °C | 
O=C1NC(=O)C(=Cc2c[nH]c3ccc([N+](=O)[O-])cc23)S1 [Example 199, 5-(5-Nitro-1H-indol-3-ylmethylene)thiazolidine-2,4-dione] |  |  | 330 to 333 °C | 
COc1cc(O)cc(OC)c1/C=C1\SC(=O)NC1=O [Example 234, 5-(4-Hydroxy-2,6-dimethoxybenzylidene)thiazolidine-2,4-dione] |  |  | 331 to 333 °C | 
Cc1cccc(C)c1/C=C1\SC(=O)NC1=O [Example 235, 5-(2,6-Dimethylbenzylidene)thiazolidine-2,4-dione] |  |  | 104 to 105 °C | 
COc1cccc(OC)c1/C=C1\SC(=O)NC1=O [Example 236, 5-(2,6-Dimethoxybenzylidene)thiazolidine-2,4-dione] |  |  | 241 to 242 °C | 
COc1cc(OCc2c(F)cccc2[N+](=O)[O-])cc(OC)c1/C=C1\SC(=O)NC1=O [Example 237, 5-[4-(2-Fluoro-6-nitrobenzyloxy)-2,6-dimethoxybenzylidene]thiazolidine-2,4-dione] |  |  | 255 to 256 °C | 
O=C1NC(=O)/C(=C/c2cc3ccccc3o2)S1 [Example 238, 5-Benzofuran-2-ylmethylenethiazolidine-2,4-dione] |  |  | 265 to 266 °C | 
CN(C)c1ccc(/C=C/C=C2\SC(=O)NC2=O)cc1 [Example 239, 5-[3-(4-Dimethylaminophenyl)allylidene]thiazolidine-2,4-dione] |  |  | 259 to 263 °C | 
CC(/C=C1\SC(=O)NC1=O)=C\c1ccccc1 [Example 240, 5-(2-Methyl-3-phenylallylidene)thiazolidine-2,4-dione] |  |  | 203 to 210 °C | 
O=C1NC(=O)/C(=C/c2cc3ccccc3[nH]c2=O)S1 [Example 242, 5-(2-Oxo-1,2-dihydroquinolin-3-ylmethylene)thiazolidine-2,4-dione] |  |  | 338 to 347 °C | 
c1cc(COc2ccc3ccccc3c2)cc(-c2nnn[nH]2)c1 [Example 572, 5-(3-(Naphthalen-2-yloxymethyl)-phenyl)-1H-tetrazole] |  |  | 200 to 202 °C | 
CN(C)c1ccc(C=C2SC(O)=NC2=O)cc1 [TZD, 5-(4-dimethylaminobenzylidene)-thiazolidine-2,4-dione, reference compound] |  |  |  | Kd ([1]; measured separately, read-out: KTZD): 0.23 µM
O=C(O)COc1ccc(/C=C2\SC(=O)NC2=O)c2ccccc12 [[4-(2,4-Dioxothiazolidin-5-ylidenemethyl)-naphthalen-1-yloxy]-acetic acid] | 0.011 µM | 2-10 μ |  | 
